Results from paper PMC6292510 (Molecular pharmaceutics, 2017).
Read-outs that look alike come from different tables or passages of the source.

Experiments:
[1] = target: human Ether-a-go-go-Related Gene (hERG) potassium channel (Homo sapiens, UniProt Q12809); assay: Predictor hERG Fluorescence Polarization Assay; format: binding
[2] = Chromatographic hydrophobicity indexing; format: physicochemical; settings: C18 RP-HPLC, rank among the test compounds
[3] = system: neonatal rat ventricular cardiomyocytes (NRVCMs); assay: MTT viability assay of neonatal rat ventricular cardiomyocytes; format: cell-based; settings: 0, 50, 100 and 200 µM; 24 or 48 h of analog exposure
[4] = system: neonatal rat ventricular cardiomyocytes (NRVCMs); assay: LIVE/DEAD assay of neonatal rat ventricular cardiomyocytes; format: cell-based; settings: 50 μM; 12, 24 and 48 h; apparent beginning 12 to 24 h
[5] = target: cytochrome P450 3A4 (CYP3A4) (Homo sapiens, UniProt P08684); assay: P450-Glo CYP3A4; format: in vitro ADME; settings: 400 μM (parent hexosamines)
[6] = read-out: hERG inhibition, concentration range, Fig. 8B & C

Sequence of human Ether-a-go-go-Related Gene (hERG) potassium channel (Q12809 whole entry): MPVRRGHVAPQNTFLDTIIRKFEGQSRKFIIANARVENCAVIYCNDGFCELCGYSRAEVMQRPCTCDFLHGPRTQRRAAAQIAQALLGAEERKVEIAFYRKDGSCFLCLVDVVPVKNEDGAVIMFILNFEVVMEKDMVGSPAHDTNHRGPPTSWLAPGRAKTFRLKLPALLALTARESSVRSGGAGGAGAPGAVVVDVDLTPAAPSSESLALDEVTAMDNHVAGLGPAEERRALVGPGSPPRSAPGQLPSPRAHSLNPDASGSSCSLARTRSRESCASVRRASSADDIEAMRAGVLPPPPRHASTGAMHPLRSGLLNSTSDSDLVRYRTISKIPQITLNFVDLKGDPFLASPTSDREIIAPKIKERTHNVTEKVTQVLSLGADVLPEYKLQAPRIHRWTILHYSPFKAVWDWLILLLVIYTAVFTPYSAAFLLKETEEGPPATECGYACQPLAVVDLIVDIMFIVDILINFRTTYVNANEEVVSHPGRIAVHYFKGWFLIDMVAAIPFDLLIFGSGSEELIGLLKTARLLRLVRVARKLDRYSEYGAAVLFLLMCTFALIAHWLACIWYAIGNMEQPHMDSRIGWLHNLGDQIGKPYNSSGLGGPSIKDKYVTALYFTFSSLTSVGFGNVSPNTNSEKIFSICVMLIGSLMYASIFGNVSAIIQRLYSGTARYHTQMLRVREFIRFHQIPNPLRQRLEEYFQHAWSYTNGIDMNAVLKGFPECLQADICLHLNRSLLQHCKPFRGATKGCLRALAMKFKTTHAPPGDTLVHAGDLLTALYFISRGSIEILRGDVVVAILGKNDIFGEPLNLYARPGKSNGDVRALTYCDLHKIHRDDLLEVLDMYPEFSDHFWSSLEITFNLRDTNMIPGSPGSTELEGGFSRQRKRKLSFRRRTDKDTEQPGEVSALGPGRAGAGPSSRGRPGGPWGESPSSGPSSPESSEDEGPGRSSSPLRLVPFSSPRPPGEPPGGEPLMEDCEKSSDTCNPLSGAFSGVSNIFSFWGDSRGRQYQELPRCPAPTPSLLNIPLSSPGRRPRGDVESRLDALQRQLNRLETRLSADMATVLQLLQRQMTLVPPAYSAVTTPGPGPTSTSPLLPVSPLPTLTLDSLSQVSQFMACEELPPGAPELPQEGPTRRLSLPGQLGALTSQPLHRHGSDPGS
Sequence of cytochrome P450 3A4 (CYP3A4) (P08684 whole entry): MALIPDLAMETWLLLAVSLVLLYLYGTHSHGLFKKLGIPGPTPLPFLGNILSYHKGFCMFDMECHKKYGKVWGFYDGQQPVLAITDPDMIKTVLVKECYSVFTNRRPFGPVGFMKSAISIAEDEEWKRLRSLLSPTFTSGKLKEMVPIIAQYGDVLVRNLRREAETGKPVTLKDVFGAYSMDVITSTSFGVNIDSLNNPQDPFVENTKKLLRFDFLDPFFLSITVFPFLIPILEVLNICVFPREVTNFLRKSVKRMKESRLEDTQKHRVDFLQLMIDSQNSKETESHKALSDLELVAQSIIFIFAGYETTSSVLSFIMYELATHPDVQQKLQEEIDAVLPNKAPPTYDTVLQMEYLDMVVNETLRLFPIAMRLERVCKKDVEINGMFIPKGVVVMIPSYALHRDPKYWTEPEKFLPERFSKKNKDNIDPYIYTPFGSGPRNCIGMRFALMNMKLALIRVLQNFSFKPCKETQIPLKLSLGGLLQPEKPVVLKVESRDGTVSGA

| Structure (SMILES) | NRVCM cell viability (MTT) [3] | cardiomyocyte cell death (LIVE/DEAD) [4] | IC50 [1, 6] [nM] | further results |
| --- | --- | --- | --- | --- |
| CCCC(=O)OC1OC(CO)[C@@H](OC(=O)CCC)[C@H](OC(=O)CCC)C1NC(C)=O (some centres unmarked) [1,3,4-O-Bu3GlcNAc] |  |  |  | hERG inhibition (detectable or not) ([1]; up to 1 mM, the highest concentration tested): no detectable inhibition |
| CCCC(=O)OC1O[C@H](CO)[C@@H](OC(=O)CCC)[C@H](OC(=O)CCC)[C@H]1NC(=O)CN=[N+]=[N-] (some centres unmarked) [1,3,4-O-Bu3GlcNAz] |  |  |  | IC50 ([1]; read-out: hERG inhibition IC50, fluorescence polarization, doses 69.7 pM to 1 mM): 2850 nM |
| CCCC(=O)OC1OC(CO)[C@@H](OC(=O)CCC)[C@H](OC(=O)CCC)C1NC(=O)CN=[N+]=[N-] (some centres unmarked) [1,3,4-O-Bu3ManNAz] |  |  |  | lipophilicity rank by experimental CHI score [2]: second highest lipophilicity |
| CCCC(=O)OC[C@H]1OC(O)[C@H](NC(C)=O)[C@@H](OC(=O)CCC)[C@@H]1OC(=O)CCC (some centres unmarked) [3,4,6-O-Bu3GlcNAc] | significantly reduced NRVCM cell viability | Significantly higher cell death | 1000 to 100000 |  |
| CCCC(=O)OC[C@H]1OC(O)[C@@H](NC(C)=O)[C@@H](OC(=O)CCC)[C@@H]1OC(=O)CCC (some centres unmarked) [3,4,6-O-Bu3ManNAc] | significantly reduced NRVCM cell viability | Significantly higher cell death | 1000 to 100000 | fold greater hERG potency versus 3,4,6-O-Bu3GlcNAc ([1]; ManNAc analog versus GlcNAc analog): ~ 13 fold |
| CC(=O)N[C@H]1[C@@H](O)[C@H](O)[C@@H](CO)O[C@@H]1O [ManNAc] |  |  |  | effect on CYP3A4 [5]: negligible effect |
